This passage reports IC50 results from patent EP3858357A1, “USE OF AZOLE COMPOUNDS TO STIMULATE THE IMMUNE SYSTEM AND AS INHIBITORS FOR S-PLA2GIB” (Diaccurate, priority 2020, dated 2021).

pIC50: −log10 of the molar value. Bounds are passed on as bounds.

In experiment [1] the target is sPLA2hGV (Homo sapiens, UniProt P39877). As to the kind of experiment: Inhibition of sPLA2hGV enzymatic activity (method of Rouault et al., 2006). It counts as biochemical. To be noted: 3-300 µM tested; Figure 2B.
The target of experiment [2] is sPLA2hGIB (Homo sapiens, UniProt P04054). The experiment in a line: Inhibition of sPLA2hGIB enzymatic activity, [3H]oleate-labelled E. coli membranes (method of Rouault et al., 2006). It counts as biochemical. Conditions: sPLA2hGIB (2 pM) pre-incubated with 10, 30, 100, 300 µM; Figure 2A. The text has this:
(§1) • Figure 1: Screening of the inhibition of sPLA2hGIB enzymatic activity by small molecules previously identified by in silico screening. 0% represents non-specific hydrolysis in the absence of sPLA2hGIB, and 100 % represents sPLA2hGIB activity with DMSO (1 %). […] The condition 'no hGIB' (0%) represents the non-specific hydrolysis of phospholipids present in E. coli membranes radio-labeled with [^3H]oleate. […] HA-tagged receptors are in the presence of sPLA2hGIB or sPLA2hGIIF, then in the presence of a specific biotinylated anti-sPLA2 antibody; "acceptor" beads are coupled to an anti-HA antibody (PerkinElmer) and "donor" beads are coupled to Streptavidine (PerkinElmer).
The condition 'no hGIB' (0%) represents the non-specific hydrolysis of phospholipids present in E. coli membranes radio-labeled with [^3H]oleate.

Experiment [3] addresses binding between mPLA2R1 receptor and sPLA2hGIB (Homo sapiens, UniProt P04054). As to the kind of experiment: AlphaLISA-based competition test of sPLA2hGIB binding to soluble HA-tagged mPLA2R1. To be noted: decrease of binding between mPLA2R1 and sPLA2hGIB; Figure 3B.
Excerpt: as §1
The inventors have developed and used an AlphaLISA®-based test (Figure 3A) capable of detecting binding between the soluble form of mPLA2R1 (which includes the whole extracellular part), and sPLA2hGIB. […]
HA-tagged receptors are in the presence of sPLA2 of interest, then in the presence of a specific biotinylated anti-sPLA2 antibody; "acceptor" beads are coupled to an anti-HA antibody (PerkinElmer) and "donor" beads are coupled to Streptavidine (PerkinElmer). The binding of a HA-tagged receptor and a sPLA2 of interest in solution, results in a proximity of donor and acceptor beads, allowing for energy transfer and the production of a light signal, which is then measured.

Experiment [4] addresses T1, sPLA2hGX (Homo sapiens, UniProt O15496).
T1 sequence (O15496 43-165): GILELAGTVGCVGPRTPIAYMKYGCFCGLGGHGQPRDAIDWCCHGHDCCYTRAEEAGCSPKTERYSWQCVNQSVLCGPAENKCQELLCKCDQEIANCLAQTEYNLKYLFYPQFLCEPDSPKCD
The experiment in a line: Inhibition of sPLA2hGX enzymatic activity (method of Rouault et al., 2006). It counts as biochemical. To be noted: 3-300 µM tested; Figure 2B.

Experiment [5] deals with T2, sPLA2hGIIA (Homo sapiens, UniProt P14555).
T2 sequence (P14555 21-144): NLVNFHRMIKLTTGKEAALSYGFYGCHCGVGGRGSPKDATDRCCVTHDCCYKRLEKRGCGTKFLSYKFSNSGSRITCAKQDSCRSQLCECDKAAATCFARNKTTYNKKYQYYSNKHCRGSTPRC
As to the kind of experiment: Inhibition of sPLA2hGIIA enzymatic activity (method of Rouault et al., 2006). The class given is biochemical. Conditions: 3-300 µM tested; Figure 2B.

sPLA2hGV, sequence (P39877 21-138): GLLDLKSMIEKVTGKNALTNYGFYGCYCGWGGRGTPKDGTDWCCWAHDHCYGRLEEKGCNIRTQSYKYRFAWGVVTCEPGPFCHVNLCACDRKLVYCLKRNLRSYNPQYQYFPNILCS
sPLA2hGIB, sequence (P04054 23-148): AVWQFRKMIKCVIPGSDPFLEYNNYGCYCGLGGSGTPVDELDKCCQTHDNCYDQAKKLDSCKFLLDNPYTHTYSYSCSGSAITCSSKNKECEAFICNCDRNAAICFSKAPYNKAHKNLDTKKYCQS
binding between mPLA2R1 receptor and sPLA2hGIB, sequence (P04054 23-148): as above

For the compound `CC(C)N1CCN(c2ccc(OCC3COC(Cn4cncn4)(c4ccc(Cl)cc4Cl)O3)cc2)CC1` [Terconazole, 1-{[(2S,4S)-2-(2,4-dichlorophenyl)-4-{[p-(4-isopropyl-1-piperazinyl)phenoxy]methyl}-1,3-dioxolan-2-yl]methyl}-1H-1,2,4-azole], the pIC50 in experiment [1] is < 3.52; in experiment [2], 3.82 to 4.00; in experiment [3], ~4.00; in experiment [4], ~3.82; in experiment [5], < 3.52.
